Columns and labels:
B-16 melanoma = experiment: Potentiation of cyclophosphamide (Cytoxan) activity against B16 melanoma in mice; format: in vivo, BDF1 mice
Description: BDF1 male mice were inoculated subcutaneously with 0.25 ml. of a 10% B-16 melanoma homogenate. Cyclophosphamide was administered intraperitoneally at 80 mg./kg. the second day following the day of tumor implantation. Test compounds were given intraperitoneally on days +6, +8 and +10 relative to tumor implantation. […]
BDF1 male mice inoculated subcutaneously with 0.25 ml. of a 10% tumo
homogenate on day 0. Drugs were administered intraperitoneally;
cyclophosphoamide on day 2, 3,6bis(2-diethylaminoethoxy)acridine
trihydrochloride on days 6, 8 and 10.
^1 Number of survivors over number of mice treated.

B16 melanoma = experiment: Surgical-adjuvant antitumor activity against B16 melanoma implanted subcutaneously in footpads; format: in vivo, BDF1 mice; details: 100 mg/kg intraperitoneal
Description: BDF1 mice were inoculated subcutaneously in the right hind footpad with 5×10^5 viable B16 melanoma cells, on day zero. The drug was prepared in normal saline and administered by the oral route once daily, on days 1, 7, and 13 following tumor implantation, at doses range from 50 mg/kg to 400 mg/kg. A control group of mice received a saline placebo instead of drug, and another group of tumor bearing mice received the positive control drug cyclophosphamide, at 100 mg/kg, by intraperitoneal injection. On the 21st day after tumor implantation, the mice were anesthesized with Nembutal, and the tumor bearing feet were surgically amputated above the ankle joint. The surgical incision was swabbed with alcohol and sealed with stainless steel wound clips. The tumor bearing feet were individually weighed and the average weight of a normal foot (determined by weighing amputated feet from non-tumor bearing mice of the same sex, age, and body weight) was subtracted to obtain the weight of tumor tissue in the amputated feet. Mice were then observed for deaths until the 90th day after tumor implantation. […]
^1 BDF1 male mice inocluated with 5 × 10^5 B16 melanom
cells subcutaneously in footpad on day zero;
(§1) 3,6bis(2-diethylaminoethoxy)acridine trihydrochloride administered orally
(§2) and Cyclophosphamide intraperitoneally, on days 1, 7, and 13 following
(§3) ^2 Average tumor weight determined after surgical amputation of tumor
bearing foot on day 21 following tumor implantation.

Lewis lung carcinoma = experiment: Surgical-adjuvant antitumor activity against Lewis lung carcinoma implanted subcutaneously in footpads; format: in vivo, BDF1 mice; details: 100 mg/kg intraperitoneal
Description: BDF1 mice were inoculated subcutaneously in the right hind footpad with 5×10^5 viable Lewis Lung carcinoma cells, on day zero. […] A control group of mice received a saline placebo instead of drug, and another group of tumor bearing mice received the positive control drug cyclophosphamide, at 100 mg/kg, administered by intraperitoneal injection. On the 11th day after tumor implantation, the mice were anesthesized with Nembutal, and the tumor bearing feet surgically amputated above the ankle joint. The surgical incision was swabbed with alcohol and sealed with stainless steel wound clips. The tumor bearing feet were individually weighed and the average weight of a normal foot (determined by weighing amputated feet from non-tumor bearing mice of the same age, sex and body weight) was subtracted to obtain the weight of tumor tissue in the amputated foot. Mice were then observed for deaths until the 90th day after tumor implantation. […]
^1 BDF1 male mice inoculated subcutaneously in footpad with 5
× 10^5 Lewis lung tumor cells on day zero;
as §1, §2, §3
bearing foot on day 11 following tumor implantation.

[1] = test system: Rauscher Virus-Induced Leukemia; experiment: Inhibition of splenomegaly in mice with Rauscher virus-induced leukemia; format: in vivo, Balb/c mice
normal mouse bone marrow = experiment: Effect on normal mouse bone marrow; format: in vivo, C57 BL6 male mice; details: 24 hours after treatment; test compound oral, Cytoxan intraperitoneal
Description: The effect of drugs on normal mouse bone marrow is evaluated by determining total cell counts of femurs and by the ability of surviving cells to form colonies in semi-solid medium. The test compound is administered orally and the reference drug Cytoxan is administered intraperitoneally to C57 BL6 male mice. One femur from each of three mice per dose level is assayed 24 hours after treatment. Counts of nucleated cells are performed on pooled marrow suspensions and the clonogenic assay is performed by plating 50,000 cells in one ml. of culture medium in each of four culture dishes. The medium to support bone marrow progenitor cell growth is McCoy's medium supplemented with 0.9% methocel, 1.8% human serum albumin, 10% bovine fetal serum and 10% "conditioned" L-cell medium. Cultures are incubated at 37° C. in a humidified atmosphere and colonies are counted at seven days.

[2] = test system: malignant melanoma, acute leukemia, lung cancer, breast cancer; details: early clinical trials; cited from earlier work
tumor = details: experimental studies in animals; cited from earlier work
[3] = cyclophosphamide 80 mg/kg i.p. alone
[4] = cyclophosphamide 80 mg/kg i.p. alone, day 26

## O=P1(N(CCCl)CCCl)NCCCO1 (stereo not shown) [Cyclophosphamide, reference compound]
B-16 melanoma; [3]
  ILS (Percent increase in life span over control): 11%
  MST (Median Survival Time): 25.0 days
B-16 melanoma; cyclophosphamide 80 mg/kg i.p. alone, day 21
  Number of survivors over number of mice treated: 8/8
B-16 melanoma; cyclophosphamide 80 mg/kg i.p. alone, day 21, p <0.05 vs untreated
  Average tumor weight: 1237 mg
B-16 melanoma; [4]
  Average tumor weight: 7458 mg
  Number of survivors over number of mice treated: 3/8
B-16 melanoma; monotherapy, i.p., day +26
  50% inhibition in local tumor growth, in words: failed to do so
B16 melanoma
  Median survival time: > 90.0 days
B16 melanoma; Day +21
  Average tumor weight: 202 mg
B16 melanoma; Day +21, * significant (≥58%)
  Average % of tumor weight inhibition: 67%
B16 melanoma; at +90 days, ** significant
  No. Survivors/No. Treated: 7/12
B16 melanoma; + significant (≥25%)
  % Increased life-span: > 70%
Lewis lung carcinoma
  Median survival time: > 90.0 days
Lewis lung carcinoma; Day +11
  Average tumor weight: 93 mg
Lewis lung carcinoma; Day +11, * significant (≥58%)
  Average % of tumor weight inhibition: 75%
Lewis lung carcinoma; at +90 days, ** p < .05
  No. Survivors/No. Treated: 10/12
Lewis lung carcinoma; + significant (≥25%)
  % Increased life-span: > 200%
[1]; 100 mg/kg
  % Reduction in splenomegaly: 106%
[1]; general statement, no dose, relative to placebo treated RLV-infected mice
  reduction in splenomegaly: ≥ 50%
Normal mouse bone marrow
  Effect on total nucleated cell count of femur marrow, in words: depressed the cell count significantly

## c1ccc([C@H]2CN3CCSC3=N2)cc1 [levamisole]
[2]
  Clinical antitumor success, in words: Some successes have been claimed
tumor
  Stimulation of cellular immunity and tumor regression, in words: shown to stimulate cellular immunity and to produce tumor regression

— patent publication US4314061A, “Certain 3,6-bis-(heteroaminoalkoxy) acridines” (priority 1980, dated 1982)
